Where two headings read alike, the source gives them in different places.
Legend:
[1] = system: liver cancer (3 cell lines); test: CellTiter-Glo Viability Assay, liver cancer; format: cell-based; conditions: Homo sapiens, inhibition of cancer cell proliferation
CLK2 = target: T1, CLK2 (Homo sapiens, UniProt P49760); test: CLK2 kinase activity assay (Z-lyte, Ser/Thr 6 peptide); format: biochemical; conditions: recombinant CLK2 kinase, ATP 60 μM; read-out: EC50
T1 construct: purchased Thermo Fisher (Life Technologies), Z'-LYTE Kinase Assay Kits
T1 sequence (P49760 whole entry): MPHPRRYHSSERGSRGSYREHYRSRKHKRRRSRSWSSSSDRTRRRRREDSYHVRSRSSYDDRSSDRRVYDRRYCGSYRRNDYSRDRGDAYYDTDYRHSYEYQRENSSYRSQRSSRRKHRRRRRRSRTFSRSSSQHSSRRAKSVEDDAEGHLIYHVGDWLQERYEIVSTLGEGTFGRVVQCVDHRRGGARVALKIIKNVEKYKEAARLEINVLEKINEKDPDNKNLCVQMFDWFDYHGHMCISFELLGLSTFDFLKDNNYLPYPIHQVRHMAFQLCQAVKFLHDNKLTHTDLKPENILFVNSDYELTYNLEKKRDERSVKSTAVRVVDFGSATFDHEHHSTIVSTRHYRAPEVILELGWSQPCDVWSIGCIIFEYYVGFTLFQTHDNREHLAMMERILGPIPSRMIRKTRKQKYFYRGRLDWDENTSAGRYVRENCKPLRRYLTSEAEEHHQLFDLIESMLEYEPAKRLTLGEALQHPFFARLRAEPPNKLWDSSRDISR
Method: All reactions were performed in duplicate.

[2] = system: pancreatic cancer (8 cell lines); test: CellTiter-Glo Viability Assay, pancreatic cancer; format: cell-based; conditions: Homo sapiens, inhibition of cancer cell proliferation
BT-549 = test: CellTiter-Glo Viability Assay, breast cancer; format: cell-based; conditions: Homo sapiens, 96 h; BT-549, breast cancer, four days; read-out: EC50
ZR-75-1 = test: CellTiter-Glo Viability Assay, breast cancer; format: cell-based; conditions: Homo sapiens, 96 h; ZR-75-1, breast cancer, four days; read-out: EC50
CAMA1 = test: CellTiter-Glo Viability Assay, breast cancer; format: cell-based; conditions: Homo sapiens, CAMA-1, 96 h; CAMA1, breast cancer, four days; read-out: EC50
T47D = test: CellTiter-Glo Viability Assay, breast cancer; format: cell-based; conditions: Homo sapiens, 96 h, breast cancer, four days, read-out: EC50
MCF7 = test: CellTiter-Glo Viability Assay, breast cancer; format: cell-based; conditions: Homo sapiens, 96 h; MCF7, breast cancer, four days; read-out: EC50
HCC1599 = test: CellTiter-Glo Viability Assay, breast cancer; format: cell-based; conditions: Homo sapiens, 96 h; HCC1599, breast cancer, four days; read-out: EC50
DU4475 = test: CellTiter-Glo Viability Assay, breast cancer; format: cell-based; conditions: Homo sapiens, DU-4475, 96 h; DU4475, breast cancer, four days; read-out: EC50
MDA-MB-231-Luc = test: CellTiter-Glo Viability Assay, breast cancer; format: cell-based; conditions: Homo sapiens, 96 h; MDA-MB-231-Luc, breast cancer, four days; read-out: EC50
[3] = system: haematopoietic & lymphoid tumors (13 cell lines); test: CellTiter-Glo Viability Assay, haematopoietic & lymphoid tumors; format: cell-based; conditions: Homo sapiens, inhibition of cancer cell proliferation
[4] = system: ovarian cancer (4 cell lines); test: CellTiter-Glo Viability Assay, ovarian cancer; format: cell-based; conditions: Homo sapiens, inhibition of cancer cell proliferation
[5] = system: prostate cancer (5 cell lines); test: CellTiter-Glo Viability Assay, prostate cancer; format: cell-based; conditions: Homo sapiens
all 50 cell lines = test: CellTiter-Glo Viability Assay, average across all cell lines; format: cell-based; conditions: Homo sapiens; across all 50 cell lines; read-out: average EC50 for inhibition of cancer cell proliferation
Procedure, shortened: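 Cancer cell lines of several tumour types plated at 300-3,000 cells/well and exposed to compound in duplicate for four days at 37° C, 5% CO2, with DMSO-treated controls. Viability read by CellTiter-Glo luminescence (ATP content); EC50 derived from dose-response curves.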

[6] = system: colorectal cancer (6 cell lines); test: CellTiter-Glo Viability Assay, colorectal cancer; format: cell-based; conditions: Homo sapiens, inhibition of cancer cell proliferation
[7] = system: lung cancer (4 cell lines); test: CellTiter-Glo Viability Assay, lung cancer; format: cell-based; conditions: Homo sapiens, inhibition of cancer cell proliferation
[8] = SNU-398, SNU398 cell line, read-out: Liver cancer, EC50 SNU398
[9] = HEPG2 cell line, read-out: Liver cancer, EC50 HEPG2
[10] = PLC/PRF/5 cell line, read-out: Liver cancer, EC50 PLC/PRF/5
[11] = BXPC-3, BxPC3 cell line, read-out: Pancreatic cancer, EC50 BxPC3
[12] = CAPAN-1, Capan1 cell line, read-out: Pancreatic cancer, EC50 Capan1
[13] = Capan-2, Capan2 cell line, read-out: Pancreatic cancer, EC50 Capan2
[14] = MIA PaCa-2 cell line, read-out: Pancreatic cancer, EC50 MIA PaCa-2
[15] = PANC 05.04 cell line, read-out: Pancreatic cancer, EC50 PANC 05.04
[16] = PANC-1 cell line, read-out: Pancreatic cancer, EC50 PANC-1
[17] = UPAFII cell line, read-out: Pancreatic cancer, EC50 UPAFII
[18] = DND41, DND-41 cell line, read-out: Haematopoietic & Lymphoid tumors, EC50 (μM) DND-41
[19] = MV4-11, MV-4-11 cell line, read-out: Haematopoietic & Lymphoid tumors, EC50 (μM) MV-4-11
[20] = Rec1, REC-1 cell line, read-out: Haematopoietic & Lymphoid tumors, EC50 (μM) REC-1
[21] = SU-DHL-4, SUDHL4 cell line, read-out: Haematopoietic & Lymphoid tumors, EC50 (μM) SUDHL4
[22] = HL-60 cell line, read-out: Haematopoietic & Lymphoid tumors, EC50 (μM) HL-60
[23] = JM1 cell line, read-out: Haematopoietic & Lymphoid tumors, EC50 (μM) JM1
[24] = JURKAT, Clone E6-1 cell line, read-out: Haematopoietic & Lymphoid tumors, EC50 (μM) JURKAT, Clone E6-1
[25] = JeKo-1 cell line, read-out: Haematopoietic & Lymphoid tumors, EC50 (μM) JeKo-1
[26] = KASUMI-1 cell line, read-out: Haematopoietic & Lymphoid tumors, EC50 (μM) KASUMI-1
[27] = Loucy cell line, read-out: Haematopoietic & Lymphoid tumors, EC50 (μM) Loucy
[28] = MOLT-4 cell line, read-out: Haematopoietic & Lymphoid tumors, EC50 (μM) MOLT-4
[29] = TF-1 cell line, read-out: Haematopoietic & Lymphoid tumors, EC50 (μM) TF-1
[30] = TOLEDO cell line, read-out: Haematopoietic & Lymphoid tumors, EC50 (μM) TOLEDO
[31] = PA-1, PA1 cell line, read-out: Ovarian cancer, EC50 (μM) PA1
[32] = TOV112D, TOV-112D cell line, read-out: Ovarian cancer, EC50 (μM) TOV-112D
[33] = OV-90 cell line, read-out: Ovarian cancer, EC50 (μM) OV-90
[34] = OVCAR-3 cell line, read-out: Ovarian cancer, EC50 (μM) OVCAR-3
[35] = DU-145, read-out: Prostate cancer EC50 Du-145
[36] = PC-3, PC3 cell line, inhibition of cancer cell proliferation, read-out: Prostate cancer EC50 PC3
[37] = 22Rv1 cell line, inhibition of cancer cell proliferation, read-out: Prostate cancer EC50 22Rv1
[38] = LNCap clone FGC cell line, inhibition of cancer cell proliferation, read-out: Prostate cancer EC50 LNCap clone FGC
[39] = VCaP (Sigma) cell line, inhibition of cancer cell proliferation, read-out: Prostate cancer EC50 VCaP (Sigma)
[40] = HCT-116, HCT116 cell line, read-out: Colorectal cancer, EC50 (μM) HCT116
[41] = HT-29, HT29 cell line, read-out: Colorectal cancer, EC50 (μM) HT29
[42] = SW-620, SW620 cell line, read-out: Colorectal cancer, EC50 (μM) SW620
[43] = DLD-1 cell line, read-out: Colorectal cancer, EC50 (μM) DLD-1
[44] = SW48 cell line, read-out: Colorectal cancer, EC50 (μM) SW48
[45] = SW480 cell line, read-out: Colorectal cancer, EC50 (μM) SW480
[46] = A-427, A427 cell line, read-out: Lung cancer, EC50 (μM) A427
[47] = HCC78, HCC-78 cell line, read-out: Lung cancer, EC50 (μM) HCC-78
[48] = NCI-H460 cell line, read-out: Lung cancer, EC50 (μM) NCI-H460
[49] = NCI-H522 cell line, read-out: Lung cancer, EC50 (μM) NCI-H522

Structure (SMILES): CN1CCC2(CC1)CN(c1cc(C(=O)Nc3cc4cc(-c5cnn(C)c5CO)ccc4cn3)ccn1)C2 [Compound 76]
- EC50 [1, 8]: 120 nM
- EC50 [1, 9]: 654 nM
- EC50 [1, 10]: 2550 nM
- EC50 (CLK2): 2.6 nM
- EC50 [2, 11]: 2070 nM
- EC50 [2, 12]: 810 nM
- EC50 [2, 13]: 1190 nM
- EC50 [2, 14]: 219 nM
- EC50 [2, 15]: 1060 nM
- EC50 [2, 16]: 1660 nM
- EC50 [2, 17]: 635 nM
- EC50 (BT-549): 1050 nM
- EC50 (ZR-75-1): 950 nM
- EC50 (CAMA1): 640 nM
- EC50 (T47D): 1220 nM
- EC50 (MCF7): 3360 nM
- EC50 (HCC1599): 673 nM
- EC50 (DU4475): 468 nM
- EC50 (MDA-MB-231-Luc): 798 nM
- EC50 [3, 18]: 0.547 µM
- EC50 [3, 19]: 0.123 µM
- EC50 [3, 20]: 1.77 µM
- EC50 [3, 21]: 0.533 µM
- EC50 [3, 22]: 1.63 µM
- EC50 [3, 23]: 0.167 µM
- EC50 [3, 24]: 1.33 µM
- EC50 [3, 25]: 0.142 µM
- EC50 [3, 26]: 0.547 µM
- EC50 [3, 27]: 0.385 µM
- EC50 [3, 28]: 0.734 µM
- EC50 [3, 29]: 2.39 µM
- EC50 [3, 30]: 0.373 µM
- EC50 [4, 31]: 0.725 µM
- EC50 [4, 32]: 0.277 µM
- EC50 [4, 33]: 1.07 µM
- EC50 [4, 34]: 0.194 µM
- EC50 [5, 35]: 941 nM
- EC50 [5, 36]: 546 nM
- EC50 [5, 37]: 397 nM
- EC50 [5, 38]: 1380 nM
- EC50 [5, 39]: 1700 nM
- EC50 (all 50 cell lines): 922 nM
- EC50 [6, 40]: 0.455 µM
- EC50 [6, 41]: 1.41 µM
- EC50 [6, 42]: 0.241 µM
- EC50 [6, 43]: 1.53 µM
- EC50 [6, 44]: 0.16 µM
- EC50 [6, 45]: 0.384 µM
- EC50 [7, 46]: 0.481 µM
- EC50 [7, 47]: 1.07 µM
- EC50 [7, 48]: 2.05 µM
- EC50 [7, 49]: 0.246 µM

Structure (SMILES): CN1CCC(Oc2ccc(NC(=O)c3n[nH]cc3/C=C/c3cccnc3)cn2)CC1 [Compound 93]
- EC50 [1, 8]: 2040 nM
- EC50 [1, 9]: 3620 nM
- EC50 [1, 10]: 9900 nM
- EC50 (CLK2): 3.7 nM
- EC50 [2, 11]: 9040 nM
- EC50 [2, 12]: > 10000 nM
- EC50 [2, 13]: > 10000 nM
- EC50 [2, 14]: 2020 nM
- EC50 [2, 15]: > 10000 nM
- EC50 [2, 16]: > 10000 nM
- EC50 [2, 17]: 6880 nM
- EC50 (BT-549): 3760 nM
- EC50 (ZR-75-1): 6790 nM
- EC50 (CAMA1): 7760 nM
- EC50 (T47D): 633 nM
- EC50 (MCF7): > 10000 nM
- EC50 (HCC1599): 240 nM
- EC50 (DU4475): 1020 nM
- EC50 (MDA-MB-231-Luc): 6790 nM
- EC50 [3, 18]: 4.78 µM
- EC50 [3, 19]: 0.273 µM
- EC50 [3, 20]: 1.26 µM
- EC50 [3, 21]: 2.56 µM
- EC50 [3, 22]: 4.59 µM
- EC50 [3, 23]: 0.765 µM
- EC50 [3, 24]: 3.73 µM
- EC50 [3, 25]: 0.706 µM
- EC50 [3, 26]: 0.479 µM
- EC50 [3, 27]: 1.96 µM
- EC50 [3, 28]: 5.56 µM
- EC50 [3, 29]: 3.59 µM
- EC50 [3, 30]: 0.886 µM
- EC50 [4, 31]: 5.95 µM
- EC50 [4, 32]: 1.55 µM
- EC50 [4, 33]: > 10 µM
- EC50 [4, 34]: 2.54 µM
- EC50 [5, 35]: 9090 nM
- EC50 [5, 36]: 9340 nM
- EC50 [5, 37]: 1060 nM
- EC50 [5, 38]: 8650 nM
- EC50 [5, 39]: 2020 nM
- EC50 (all 50 cell lines): 4530 nM
- EC50 [6, 40]: 1.88 µM
- EC50 [6, 41]: 5.48 µM
- EC50 [6, 42]: 1.36 µM
- EC50 [6, 43]: 1.35 µM
- EC50 [6, 44]: 0.577 µM
- EC50 [6, 45]: 3.5 µM
- EC50 [7, 46]: 4.12 µM
- EC50 [7, 47]: > 10 µM
- EC50 [7, 48]: 5.17 µM
- EC50 [7, 49]: 1.42 µM
